In patent US20190008878A1, “COMPOSITIONS AND METHOD FOR REDUCING CARDIOTOXICITY” (SignPath Pharma Inc., priority 2017, published 2019):
“Also recorded” adds a separate entry of the source.

Experiments:
HEK293 cells = conditions: 20 μM, 24 h incubation; cited from earlier work
[1] = chronic sunitinib cardiotoxicity study, two 28-day cycles with or without the invention (ECG, echocardiography, arterial pressure, body weight, troponin); format: in vivo, Hartley guinea pigs; conditions: for left ventricular / cardiac hypertrophy (cardiac weight): after 86 days (2 cycles) of treatment
[2] = Langendorff retrograde perfusion of hearts taken on Day 86 (left ventricle contractility and kinetics); parameters: species or system Hartley guinea pigs; conditions: Day 86, ex vivo Langendorff
Description: In FIG. 5B, on Day 86, the animals were euthanized and the hearts mounted onto a Langendorff retrograde perfusion system. A left ventricular pressure transducer was inserted into the left ventricle and recorded LV contraction amplitude and kinetics.
In FIG. 6, the pressure developed by the heart on Day 86 of treatment was measured ex-vivo in a Langendorff retrograde perfusion system.

Row | SMILES | HEK293 cell viability (HEK293 cells) | mean arterial blood pressure ([1]; Day 86, invasive femoral artery catheter, anesthetized animals, sunitinib alone compared with sunitinib plus the invention) | left ventricular / cardiac hypertrophy (cardiac weight) [1] | left ventricular / cardiac hypertrophy (cardiac weight) ([1]; listed as Sunitinib) | QTc prolongation ([1]; as of Day 28, increasing steadily until Day 86, sunitinib 10 mg/kg/day, Bazett correction, n=6 per group) [ms] | Troponin I levels ([1]; blood, sunitinib alone compared with sunitinib plus the invention) | LV ejection velocity at the aortic valve (AoVMax) ([1]; cardiac echography, over the treatment) | left ventricular distension (end of diastole and end of systole) ([1]; echocardiography, over the treatment) | left ventricular distension (end of diastole and end of systole) ([1]; echocardiography, over the treatment, listed as Sunitinib) | left-ventricular fractional shortening ([1]; echocardiography, difference between groups significant after 86 days) | Troponin levels compared with intact animals ([1]; intact animals 0.05 ng/mL (data not shown)) | end-systolic / developed left ventricular pressure [2] | rate of contraction of the LV ([2]; LV pressure transducer)
1 | COc1cc(/C=C/C(=O)CC(=O)/C=C/c2ccc(O)c(OC)c2)ccc1O [curcumin] | reduced | – | – | – | – | – | – | – | – | – | – | – | –
2 | CCN(CC)CCNC(=O)c1c(C)[nH]c(/C=C2\C(=O)Nc3ccc(F)cc32)c1C [sunitinib] | – | Significantly higher | onset of hypertrophy | caused cardiac hypertrophy | 15 to 25 | significantly higher | lower; also recorded: gradual decrease | left-ventricular distention | greater LV distension | lower; also recorded: time-dependent loss | significantly greater | significantly lower | lower
